Tests used:
I. minor workers [1] = assay: Channel arena bioassay; type: in vivo, Incisitermes minor; conditions: after 24 hours; pinene 1.3 μg/cm2 (100 μL of 0.1 mg/mL in methanol); 20 termites, 10 replicates
Description: (§1) Termites. Western drywood termites, I. minor, were extracted from several pieces of infested wood collected in Riverside, CA. Each colony was stored in a plastic container (30.5 by 21.6 by 6.4 cm) with small pieces of basswood (150 by 100 by 3.2 mm; Midwest Products Co., Inc., Darien, IL) as a food source. A couple of small openings were made on the sides of the containers for ventilation, and the containers were placed within a larger plastic box (40.6 cm by 22.9 cm by 27.9 cm) containing a saturated NaCl solution to maintain 75% relative humidity (RH) within the larger box (Winston and Bates 1960). The stock colony boxes were kept in a growth chamber (Thermo Fisher Scientific, Waltham, MA) at 26° C. without light. […]
To establish the “initial-aggregation zone,” twenty termites were confined to a 5-cm zone at one end of the channel for 24 hours (h) using a cotton plug (FIG. 1). […] After 24 hours (h), the number of termites in the treatment zone was counted under red light (110 lux, Tacklife; Levittown, NY) to minimize any disruption to the termites during observation (Cabrera and Rust 1996). […]
(§2) Statistical Analyses. […] The data were first analyzed with a Kaplan-Meier survival analysis for the insecticide bioassays. […]

I. minor workers [2] = assay: T-maze bioassay; type: in vivo, Incisitermes minor; conditions: at 24 h; for percent of termites found in the treated choice block (mean±SEM): block treated with 100 μL of 0.1 mg/mL pinene in methanol; for percent of termites found in the untreated choice block (mean±SEM): other block treated with 100 μL of 0.1 mg/mL pinene in methanol
Description: Termites. Western drywood termites, I. minor, were extracted from several pieces of infested wood collected in Riverside, CA. Each colony was stored in a plastic container (30.5 by 21.6 by 6.4 cm) with small pieces of basswood (150 by 100 by 3.2 mm; Midwest Products Co., Inc., Darien, IL) as a food source. A couple of small openings were made on the sides of the containers for ventilation, and the containers were placed within a larger plastic box (40.6 cm by 22.9 cm by 27.9 cm) containing a saturated NaCl solution to maintain 75% relative humidity (RH) within the larger box (Winston and Bates 1960). The stock colony boxes were kept in a growth chamber (Thermo Fisher Scientific, Waltham, MA) at 26° C. without light. To minimize the chance of using termites that were damaged during the collection process, the collected termites were left undisturbed for at least 7 days (d), and the surviving termites at the end of this period were used in the experiments. One or two different populations were randomly chosen to set up each experimental trial. Only worker termites (approximately 5 mm in length) were used for the experiments.
Chemicals. Two monoterpenes, α-pinene (98%, Sigma-Aldrich, St. Louis, MO) and (−)-β-pinene (>99%, Sigma-Aldrich), were individually tested for their effects on drywood termite behavior. Methanol was used to dissolve the pinenes at 0.1 mg/mL concentration. Clean methanol served as a solvent-only control.
T-maze Bioassay. A T-maze bioassay was developed to study the effects of α- or β-pinene on the choice behavior of I. minor within a simplified termite gallery system. The T-maze consisted of three basswood blocks (2.54 cm by 2.54 cm by 10.16 cm). One block served as a central acclimation block, while the other two served as lateral choice blocks (FIG. 2). All blocks were drilled along the centerline to form longitudinal tunnels (8.9 cm in depth, 0.95 cm in diameter), which ended near the opposite end of the block (about 1.2 cm away from the opposite end of the block). For the acclimation block, a through hole (0.95 cm in diameter) was drilled to add a cross tunnel, perpendicularly intersecting the longitudinal tunnel at its closed end. This cross tunnel provided connection points between the acclimation block and two choice blocks.
Twenty termites from the stock colony were placed in the tunnel of the acclimation block and confined there for 24 hours (h) by sealing the holes with rubber stoppers. Two choice blocks were randomly assigned for treatment (treated block) or no treatment (untreated block). […] After 24 hours, T-mazes were disassembled, and numbers of termites in each of the three blocks (two choice blocks and one acclimation block) were recorded. […]

I. minor workers [3] = assay: Insecticide bioassay for fipronil (channel arena); type: in vivo; conditions: Incisitermes minor, 336 h; day 14; 10 μL of 0.06% aqueous fipronil suspension on 1.43 cm^2; pinene 100 μL of 0.1 mg/mL in methanol; read-out: final cumulative mortality
Description: as §1
Insecticide Bioassay. The effect of pinenes on the efficacy of insecticide residue was evaluated using the channel arena bioassay design (FIG. 2). […]
Two different control groups were included in the experimental design: one without insecticide, and the other with insecticide. […] Termites were recorded as dead (no movement) or alive. […]
as §2

Structure (SMILES)	percent of termites found in the treatment zone (mean±SEM) (I. minor workers [1]) [%]	percent of termites found in the treated choice block (mean±SEM) (I. minor workers [2]) [%]	percent of termites found in the untreated choice block (mean±SEM) (I. minor workers [2]) [%]	mortality at 100 µg/mL (I. minor workers [3]) [%]
C=C1CC[C@H]2C[C@@H]1C2(C)C [β-pinene, (−)-β-pinene]	58±6.3	54.5±14.8	4.5±3.5	–
CC1=CCC2CC1C2(C)C (stereo not drawn) [α-pinene]	55±9.3	45.5±14.1	7.0±7.0	–
N#Cc1nn(-c2c(Cl)cc(C(F)(F)F)cc2Cl)c(N)c1[S+]([O-])C(F)(F)F (stereo not shown) [fipronil only, fipronil]	–	–	–	76.5 ± 5.7
